Results on four compounds are retold here after paper PMC5374710, “Discovery of the first dual GSK3β inhibitor/Nrf2 inducer. A new multitarget therapeutic strategy for Alzheimer’s disease” (Scientific Reports, 2017).

For data set [1], the target named is T1, GSK3β (Homo sapiens, UniProt P49841).
T1 construct: purchased Promega V1991
The data set can be described thus: GSK3β inhibition, luminescence Kinase-Glo assay. Type of data set: biochemical. To be noted: for Ki: calculated from IC50 by Cheng-Prusoff equation, Km ATP 2.345 µM, read-out: Ki (apparent equilibrium dissociation constant); for IC50: four concentrations 0.1, 1, 10, 30 μM, ATP 1 μM, 1 h.
Description: GSK3β inhibitory activity was evaluated using the method developed by Baki[66], with modifications. Compounds were dissolved in assay buffer, containing 40 mM Tris (pH 7.5), 20 mM MgCl2, 0.1 mg/ml BSA (bovine serum albumin) and 50 μM dithiothreitol (DTT) at the desired concentrations. Firstly, 10 μl of enzyme (10 ng) and 10 μl of each compound were mixed for 30 min. Then, 20 μl of a mixture of ATP (1 μM) and GSK3β peptidic substrate were added to each well. The mixture was incubated for 60 min at 30 °C. Thereafter, the remaining ATP concentration was measured with the Kinase-Glo system following instructions from the supplier. Luminescence was measured in an Orion II microplate luminometer (Berthold, Germany) as relative light units (RLU). […] IC50 values were calculated by non-linear regression analysis of individual concentration-response curves using GraphPad Prism 5.0 software (San Diego, CA, USA).
The ability of the compounds to inhibit GSK3β was evaluated using the method developed by Baki^9 with some modifications. The tested compounds were dissolved in assay buffer, containing 40 mM Tris (pH 7.5), 20 mM MgCl2, 0.1 mg/ml BSA (bovine serum albumin) and 50 µM dithiothreitol (DTT), to achieve final reaction concentrations of 0.1, 1, 10 and 30 µM. […] The GSK3β inhibition assay was performed in white 96-well plates, in duplicates. Firstly, 10 µl of enzyme (10 ng) were added to each well, followed by 10 µl of the compounds at the desired concentration. After 30 minutes, 20 µl of a mixture of ATP and GSK3β peptidic substrate were added to each well, achieving a final concentration of 1 µM of ATP and 25 of µM peptidic substrate. The mixture was incubated at 30 °C for 60 minutes. Once the reaction was finished, the remaining ATP concentration was measured by adding 40 µl/well of Kinase-Glo reagent. The luminescence was measured in an Orion II microplate luminometer (Berthold, Germany) as relative light units (RLU). The luminescence recorded is proportional to the amount of ATP present in each well.
Apparent Ki for each compound were calculated from GSK3β Km value for ATP, applying the Cheng-Prusoff equation^10,11 in its simplified form: Ki = IC50/(1+([S]/Km)), in which S refers to the ATP concentration and Km is the Michaelis constant of the substrate for GSK3β.

For data set [2], the system named is SH-SY5Y cells. Description: Neuroprotection against okadaic acid (tau hyperphosphorylation), MTT. Type of data set: cell-based. The note with it: 1 μM, 24 h pre-incubation, 18 h co-incubation with OA 20 nM.
Data set [3] concerns the target T2, Keap1 Kelch domain (Homo sapiens, UniProt Q14145).
T2 construct: A solution of the Keap1 Kelch domain protein (5 µM)
Description: Differential scanning fluorimetry assay. Type of data set: binding. The note with it: ligand concentration 10 µM. On the technique in general: DSF heats the sample and reads unfolding from a dye or from intrinsic fluorescence.
Description: A solution of the Keap1 Kelch domain protein (5 µM) and detection dye SYPRO® orange (5X) in DPBS at pH 7.4 was added onto a qPCR plate containing the compound inhibitor (10 µM, 10% final DMSO concentration, 40 µL final volume). The plate was sealed using an optical foil seal and covered with aluminum foil to protect the dye from light. The plate was then transferred to a plate centrifuge and spun down briefly (200 G, 1 min, room temperature) to remove any bubbles and collect the solution at the bottom of the wells. Following a 30 min incubation at room temperature, the plate was placed into a 7500 Real time PCR machine and the fluorescence intensity at an excitation of 465 nm and emission of 580 nm was recorded during a temperature scan from 25 °C to 95 °C with a temperature ramping rate of 1 °C/min. All measurements were run in triplicate. Life Technologies software was used to set up the run on 7500 Software v.2.0.0 and the initial data processing was carried out on Protein thermal shift solution software. The raw data were exported to MS Excel and analysis was performed using a custom script provided by the Structural Genomics Consortium Oxford.^18 The temperature range over which the protein unfolding occurred was selected and the maximum and minimum (at temperatures below the maximum intensity) fluorescence intensities within this range were determined. The processed data were fitted to the Boltzmann equation by non-linear regression using the Origin Pro software.

Data set [4] deals with primary rat glial cells. The data set can be described thus: Nitrite production in LPS-stimulated primary glial cultures (Griess). The format is cell-based. The note with it: Glial cell, 24 h pre-incubation, 18 h co-incubation with LPS 1 μg/mL, read-out: IC50 nitrite reduction. The source says: Therefore, we envisaged the study of compounds 5a–t as potential anti-inflammatory agents. We used primary rat glial cells treated with lipopolysaccharide (LPS) to induce the production of nitrites and ROS as a model of glial activation. Nitrite production is directly proportional to the expression of the iNOS, that is over-expressed when LPS activates glial cells. ROS production is proportional to NOX activation after stimulation with LPS. Results are summarized in Table 2 as IC50s of nitrite production reduction and ROS production reduction. We have included sulforaphane as control in all experiments (see the Supporting Information).
Glial cells were pre-incubated with increasing concentrations of compounds for 24 hours. Then, treatments were removed and cells were incubated with LPS (1 μg/mL) alone or in presence of each compound at the desired concentration. Nitrite production was assessed 18 hours later by modified Griess assay. Briefly, samples (150 μl) were mixed with dapsone (75 μl) and NEDA (75 μl), and the mixture was incubated at room temperature for 5 min. Light absorption was measured at 550 nm in a microplate reader (Labtech, Offenburg, Germany). All data were normalized to basal nitrite production, considering this value as 100% of nitrite production. IC50 values were calculated from dose-response curves represented as percentage of nitrite production reduction induced by the different concentrations of each compound.
Mixed glial cultures were obtained from cerebral cortex of 2-5 day-old Sprague-Dawley rats. After removal of blood vessels and meninges, the forebrains were dissociated in DMEM/F12 medium. After mechanical dissociation, cells were plated (3x10^5 cells/ml) in DMEM/F12 medium with 20% fetal bovine serum (FBS) and 1 % penicillin/streptomycin (10,000 units), at 37 °C and in a 5 % CO2-supplemented air atmosphere. After 5 days, medium was substituted by DMEM/F12 medium with 10 % FBS. Cells were cultured for 7-10 days before treatment.
Primary rat glial cells were treated with compounds 5a-t at increasing concentrations (3, 10, 30 and 60 µM) during 24 h. Thereafter, treatments were removed and glial cells were co-incubated with increasing concentrations of each compound and LPS (1 µg/mL) for 18 h more. At the end of this period, supernatant was collected and the presence of nitrites was analyzed by the Griess method with modifications.^20 Each plate included non-treated cells as basal nitrite production, sulforaphane (SFN, 10 µM) as positive control. Briefly, samples (150 µl) were mixed with DAPSONE (75 µl) and NEDA (75 µl), and the mixture was incubated at room temperature for 5 min. Light absorption was measured at 550 nm in a microplate reader (Labtech, Offenburg, Germany). All data were normalized to basal nitrite production, considering this value as 100% of nitrite production. EC50 values were calculated from dose-response curves represented as percentage of nitrite production reduction induced by the different concentrations of each compound. Concentration response curves were fitted by non-linear regression analysis of individual concentration-response curves using GraphPad Prism software (San Diego, CA, USA). EC50 values are expressed as mean ± SEM of four different experiments in triplicate.
Background: Nitrite, measured by Griess reagent, commonly stands in for NO production.

Data set [5] relates to SH-SY5Y cells. Description: Cytotoxicity in SH-SY5Y neuroblastoma cell line (MTT). To be noted: 24 h.
Description: Viability was measured as MTT reduction in presence of increasing concentrations of derivatives. Values are expressed as LD50 calculated from dose-response curves of four different concentrations.
Cells were cultured in 48-well (SH-SY5Y, 1x10^5 cells per well) or 96-well plates (HepG2, 1x10^5 cells per well) for 24 h. […] Control cells were incubated with the same concentration of DMSO (0.1 % final concentration) without any drug.
The target of data set [6] is T3, Nrf2-Keap1 protein-protein interaction (Homo sapiens, UniProt Q14145).
T3 construct: a solution of the Keap1 Kelch domain (200 nM)
T3 sequence (Q14145 321-609 limits assumed): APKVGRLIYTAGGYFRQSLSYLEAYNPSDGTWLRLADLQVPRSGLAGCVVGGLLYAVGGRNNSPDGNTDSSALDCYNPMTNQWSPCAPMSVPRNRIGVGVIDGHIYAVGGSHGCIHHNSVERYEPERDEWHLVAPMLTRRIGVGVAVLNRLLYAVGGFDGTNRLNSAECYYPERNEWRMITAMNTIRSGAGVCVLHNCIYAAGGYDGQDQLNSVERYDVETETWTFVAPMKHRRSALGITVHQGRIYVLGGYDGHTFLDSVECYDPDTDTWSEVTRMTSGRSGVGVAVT
The data set can be described thus: Fluorescence polarization assay of Nrf2-Keap1 interaction. The note with it: ligand concentration 10 µM; read-out: FP % Inhibition (± SEM). Type of data set: binding. (Fluorescence polarisation rises when a labelled molecule tumbles more slowly, as on binding a larger partner.)
Description: Data are presented the means ± SEM of two experiments performed in triplicate.
The FP assay was carried out as previously described.^16,17 Inhibitors (10 µM) were plated onto untreated Corning® black 96 well plates containing a solution of the Keap1 Kelch domain (200 nM) and the fluorescent peptide FITC-β-DEETGEF-OH (1 nM) in Dulbecco’s Phosphate Buffered Saline (DPBS) at pH 7.4 (11% final DMSO concentration, 100 µL final volume). Following a 30 min incubation under slow agitation and away from light at room temperature, the plates were transferred to a PHERAstar microplate reader (BMG Labtech, Ortenberg, Germany) and the fluorescence polarisation was recorded. All measurements were recorded in triplicate.

Data set [7] concerns SH-SY5Y cells. Description: Neuroprotection against rotenone/oligomycin A (R/O), MTT. The format is cell-based. The note with it: 1 μM, 24 h pre-incubation, 24 h co-incubation with rotenone/oligomycin A 30/10 μM. On the procedure: Figure 5 Compounds 5a–t exert neuroprotection in in vitro models of AD. […] Then, treatments were removed and cells were co-incubated with each treatment and okadaic acid for 18 h or R/O for 24 h. Cell viability was measured by the MTT reduction assay. Values are expressed as mean ± SEM of five independent experiments in triplicate. ***p < 0.001; **p < 0.01 respect to toxic stimuli treated cells, considered as 0% of protection.
As stated in the Introduction, oxidative stress is considered one of the main causes of neuronal death in AD. Therefore, we were interested in evaluating the potential antioxidant activity of compounds 5a–t in a model of oxidative stress and energy depletion, which in turn increase cell death. For this purpose, we selected the combination of rotenone (30 μM) and oligomycin A (10 μM) (R/O) to induce neurotoxicity as a model system[23][40] to evaluate the potential neuroprotective activity of the compounds. Melatonin, a well-known antioxidant natural compound, was included as a positive control.
(§1) A pre- and co-incubation protocol was followed. Cells were pre-incubated with the corresponding compound at 1 μM in neuroblastoma cells culture medium. After 24 h, medium was removed and replaced with 1% FBS neuroblastoma culture media containing the corresponding compound (1 μM) and the toxic stimuli, the mixture of rotenone and oligomycin A (30 μM/10 μM respectively) or okadaic acid at 20 nM. Cells were co-incubated for further 24 h with the rotenone and oligomycin A solution or 18 h with the okadaic acid solution. Control cells were incubated with the same amount of DMSO without any drug. After the co-incubation period, cell viability was assessed by the MTT-reduction method.
as §1, with “A pre” for “A pre-”, “1 µM” for “1 μM”, “compound at 1 µM” for “compound (1 μM)”, “stimuli, namely a” for “stimuli, the”, “(30 µM / 10 µM” for “(30 μM/10 μM”, “drug. […]” for “drug.”
The percentage of protection was calculated as follows: the percentage of cell survival obtained with the toxic stimuli-treated cells subtracted to 100 was normalized to 100 % of cell death. The percentage of protection was obtained by subtracting the percentage of cell death in presence of the tested compound to 100%.

T1 sequence (P49841 whole entry): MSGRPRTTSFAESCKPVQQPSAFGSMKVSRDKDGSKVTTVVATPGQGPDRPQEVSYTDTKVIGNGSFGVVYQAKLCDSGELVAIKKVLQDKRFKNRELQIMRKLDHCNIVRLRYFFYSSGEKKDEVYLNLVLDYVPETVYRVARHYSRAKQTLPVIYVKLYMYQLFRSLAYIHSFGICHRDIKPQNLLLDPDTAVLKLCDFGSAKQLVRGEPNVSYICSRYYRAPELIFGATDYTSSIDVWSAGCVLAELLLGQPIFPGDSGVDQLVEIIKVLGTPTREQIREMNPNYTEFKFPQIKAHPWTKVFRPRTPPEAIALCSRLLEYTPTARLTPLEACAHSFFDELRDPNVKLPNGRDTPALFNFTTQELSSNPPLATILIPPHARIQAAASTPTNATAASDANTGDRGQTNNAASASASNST
T2 sequence (Q14145 321-609 limits assumed): as the sequence (Q14145 321-609 limits assumed) above

Usually IC50 stands for the concentration that inhibits the measured activity by half. In general, ΔTm refers to the shift of the melting midpoint relative to a reference. What is called inhibition is the share of the control response that was lost under treatment. For the compound `Cc1[nH]nc2c1C(c1ccc(Br)cc1)C(C#N)=C(N)O2` (centres unmarked) [Compound 5m, 6-Amino-4-(4-bromophenyl)-3-methyl-2,4-dihydropyrano[2,3-c]pyrazole-5-carbonitrile], in data set [1], the Ki was 2.64 µM and the midpoint of inhibition, the IC50, lay at 3.77 ± 2 µM. Further, in data set [2], the “Percentage of protection against okadaic acid toxicity” value is reported as “over 50%”. For the same compound, the ΔTm at 10 µM in data set [3] was -0.14 ± 0.35 °C. Besides, in data set [4], the IC50 is 11.4 ± 2.27 µM. The “SH-SY5Y LD50” value in data set [5] is above 100 µM. In addition, the inhibition at 10 µM in data set [6] is below 0%.

As for `COc1cccc(C2C(C#N)=C(N)Oc3n[nH]c(C)c32)c1` (centres unmarked) [Compound 5c, 6-Amino-4-(3-methoxyphenyl)-3-methyl-2,4-dihydropyrano[2,3-c]pyrazole-5-carbonitrile], the Ki in data set [1] was 5.04 µM. Besides, the results for the 50% inhibitory concentration (IC50) in data set [1] and in data set [4] were 7.2 ± 0.7 µM and 12.9 ± 0.86 µM, respectively. For the same compound, the ΔTm at 10 µM in data set [3] is -0.43 ± 0.49 °C. For the same compound, in data set [7], the “Percentage of protection against R/O toxicity” value was determined as 55.3%. In data set [5], the “SH-SY5Y LD50” value is above 100 µM. Besides, in data set [6], the inhibition at 10 µM was below 0%.

In the case of `COc1ccc(C2C(C#N)=C(N)Oc3n[nH]c(C)c32)cc1` (centres unmarked) [Compound 5d, 6-Amino-4-(4-methoxyphenyl)-3-methyl-2,4-dihydropyrano[2,3-c]pyrazole-5-carbonitrile], in data set [1], the Ki was 4.63 µM and half-maximal inhibition (IC50) required 6.6 ± 1.7 µM. Besides, the “Percentage of protection against R/O toxicity” value in data set [7] came out at 38.8%. In addition, the IC50 in data set [4] came out at 35.4 ± 2.57 µM. For the same compound, in data set [5], the “SH-SY5Y LD50” value was above 100 µM.

For the compound `Cc1n[nH]c2c1C(c1ccccc1Br)C(C#N)=C(N)O2` (centres unmarked) [Compound 5l, 6-Amino-4-(2-bromophenyl)-3-methyl-2,4-dihydropyrano[2,3-c]pyrazole-5-carbonitrile], the IC50 in data set [1] is above 30 µM; in data set [4] it was 26.7 ± 1.95 µM. For the same compound, in data set [7], the “Percentage of protection against R/O toxicity” value came out at 24.1%. In addition, the “SH-SY5Y LD50” value in data set [5] was above 100 µM.
